The subject of this experiment is 873145-292-R-J1-PDC complex spheroid viability. The experiment can be described thus: Anticancer human tumor 873145-292-R-J1-PDC patient-derived renal clear cell carcinoma cell line growth inhibition [POLQ]. The following applies: for viability, T/C: stronger effect = lower value. The protocol: Multicellular complex tumor spheroid response to Polymerase (POL) inhibitors (novobiocin, ART-558, RP6685) in combination with a variety of drugs and investigational agents in selected tumor cell lines
The POL inhibitors (novobiocin, ART-558, and RP6685) were evaluated both individually and in combination with standard of care and investigational anticancer small molecules within a complex spheroid model of solid tumors. . Complex spheroids include a stromal component modeled by human endothelial cells (HUVEC) and fibroblasts modeled by human mesenchymal stem cells (MSCs). The concentration ranges selected for each drug and investigational agent were based upon clinically achievable concentrations if the clinical Cmax of the agent was known.
Compounds. The drugs and investigational agents: novobiocin (NSC847541), ART-558 (NSC835418), RP-6685 (NSC848927), peposertib (NSC802822), ceralasertib (NSC780249), elimusertib (NSC800525), camonsertib (NSC841442), AZD-1390 (NSC803789), olaparib (NSC753686), talazoparib (NSC767125), rucaparib (NSC756644), sotorasib (NSC818433), MRTX-1133 (NSC836407), SN-38 (NSC673596), topotecan (NSC609699), epotoside (NSC141540), doxorubicin (NSC123127), gemcitabine (NSC613327), 5-fluorouracil (NSC19893), paclitaxel (NSC125973), vemurafenib (NSC761431), MSA-2 (NSC828583), SN-011 (NSC837082), adavosertib (NSC754352), prexasertib (NSC758257), carboplatin (NSC241240) and oxaliplatin (NSC266046), were obtained from the National Cancer Institute (NCI) Developmental Therapeutics Program Chemical Repository (21). The FDA-approved anticancer drug set is available from the Developmental Therapeutics Program at https://dtp.cancer.gov/organization/dscb/obtaining/. […] The stock solutions were prepared in dimethyl sulfoxide (DMSO, Sigma-Aldrich, St. Louis, MO, cat. D2650), except for the platinum compounds which were prepared in saline (Quality Biological, Gaithersburg, MD, cat. 114-055-101), at 800-fold the tested concentration and stored at -70 degrees C prior to their use. All drugs and investigational agents were tested over a range starting from a high concentration at or near the clinical Cmax and decreasing in half-log increments. If the clinical Cmax for an agent had not been determined, the highest concentration tested was 10 microM, except for SN-38, which was tested at a high concentration of 1 microM.
Cell Culture. All cells were maintained in an incubator at 37 degrees C and 5% CO2 with 95% humidity. The PDC lines were cultured according to standard operating procedures established by the NCI PDMR (https://pdmr.cancer.gov). Table 3 of the manuscript, lists the cell lines along with the number of the three cell types plated to form the mct-spheroids and media for tumor cell growth. After thawing, all PDC lines, except 997537-175-T-J1-PDC and 415267-285-R-J2-PDC, were cultured in Matrigel-coated flasks prepared with a working solution of 1X Ham's F-12 nutrient mix, without supplementation (Thermo Fisher Scientific, cat. 11765054), 100 U/mL penicillin-streptomycin (Thermo Fisher Scientific, cat. 15140122), and 2.5% Matrigel (Corning Inc., Corning, NY, cat. 354248) for the first three passages. The two PDC lines 997537-175-T-J1-PDC and 415267-285-R-J2-PDC were cultured on uncoated flasks. The 857933-349-R-J2-PDC line was cultured in 6C/Colon 1B media containing advanced DMEM/F-12 (Thermo Fisher Scientific, cat. 12634028), 10 mM HEPES (Thermo Fisher Scientific, cat. 15630080), 1X GlutaMAX supplement (Thermo Fisher Scientific, cat. 35050061), 0.1 mg/mL primocin (InvivoGen, San Diego, CA, cat. ant-pm-2), 10% defined fetal bovine serum, heat inactivated (HyClone Laboratories Inc., Logan, UT, cat. SH30070.03HI), 50% L-WRN conditioned media (ATCC, cat. CRL-3276), 1.25 mM N-Acetyl-L-cysteine (Sigma-Aldrich, cat. A9165), 10 mM nicotinamide (Sigma-Aldrich, cat. N0636), 1X B-27 supplement (Thermo Fisher Scientific, cat. 17504044), 1X N-2 supplement (Thermo Fisher Scientific, cat. […]

Where [1] appears, read: compound alone, run of 01/08/2024.

Structures are written as SMILES. “And” between values parts separate entries of the source, which are not always exact repeats. Equal values may be shown once.
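Further: spheroids exposed to compounds for 7 days before viability readout.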
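Wherever viability, T/C is given: luminescence signal used as surrogate for viable cell content.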

With `COC1C(OC(N)=O)C(O)C(Oc2ccc3c(O)c(NC(=O)c4ccc(O)c(CC=C(C)C)c4)c(=O)oc3c2C)OC1(C)C` (stereo not given), the viability, T/C (as a rule, the ratio of treated to control) was 93.7% [middle of 13 runs] (compound 0.0316 µM); 102% [middle of 13 runs] (compound 0.316 µM); 99.8% [middle of 13 runs] (compound 1 µM); 102% [middle of 13 runs] (compound 3.16 µM); 98.3% [middle of 13 runs] (compound 10 µM). For the same molecule, the IC50 (as a rule, the concentration that gives 50% inhibition) under setting [1] is above 10 µM.

Consider `COc1cc(C2c3cc4c(cc3C(OC3OC5COC(C)OC5C(O)C3O)C3COC(=O)C23)OCO4)cc(OC)c1O` (stereo not given), for which the viability, T/C by setting is: (compound 0.0316 µM) 95.1% and 110% and 113%; (compound 0.1 µM) 94.9% and 101% and 95.3%; (compound 0.316 µM) 98.2% and 106% and 94.5%; (compound 1 µM) 95.1% and 95.9% and 102%; (compound 3.16 µM) 67% and 80.8% and 85.2%; (compound 10 µM) 56.9% and 68.2% and 66%. In addition, the half-maximal inhibitory concentration (IC50) (curve of compound) was above 10 µM.

Regarding `COc1ccc([C@@H](O)c2cc(-c3ncnc4cc(N5CCOCC5)ccc34)c(F)cc2Cl)nn1`, the viability, T/C is 70.5% and 97.3% and 103% (compound 0.0316 µM); 85% and 91.1% and 92.7% (compound 0.1 µM); 86.9% and 84.3% and 87% (compound 0.316 µM); 66.4% and 79.4% and 67.4% (compound 1 µM); 56.9% and 52.8% and 57% (compound 3.16 µM); 42.3% and 49.3% and 41.6% (compound 10 µM). Besides, the IC50 (curve of compound) is 5.01 µM and 7.26 µM and 5.06 µM.

`COc1cccc(OCCCN)c1-c1cc(Nc2cnc(C#N)cn2)n[nH]1`: the viability, T/C is, setting by setting: (compound 0.00316 µM) 103% and 116% and 101%; (compound 0.01 µM) 89.6% and 98.2% and 94.2%; (compound 0.0316 µM) 68.6% and 71.2% and 98.3%; (compound 0.1 µM) 60.8% and 74% and 71.8%; (compound 0.316 µM) 63.5% and 75.3% and 79.5%; (compound 1 µM) 72.4% and 84.5% and 73.1%. Moreover, the IC50 (curve of compound) is above 1 µM.

For `COc1cccc2c1C(=O)c1c(O)c3c(c(O)c1C2=O)CC(O)(C(=O)CO)CC3OC1CC(N)C(O)C(C)O1` (stereo not given), the viability, T/C was 79.5% and 101% and 88.3% (compound 0.0316 µM); 68.8% and 87.2% and 90.1% (compound 0.1 µM); 70.1% and 92.2% and 85.7% (compound 0.316 µM); 68.8% and 84.2% and 79.3% (compound 1 µM); 3.4% and 5.11% and 4.22% (compound 3.16 µM); 2.7% and 3.08% and 3.02% (compound 10 µM). The IC50 (curve of compound) is 1.39 µM and 1.65 µM and 1.57 µM.

Consider `Cc1cccc(N(C)C(=O)C2C(O)CCN2c2nc(C)cc(C(F)(F)F)c2C#N)c1` (stereo not given), for which the viability, T/C (compound 0.0316 µM) is 93.4% [middle of 13 runs]; the viability, T/C (compound 0.1 µM) is 97.4% [middle of 13 runs]; the viability, T/C (compound 0.316 µM) is 98.9% [middle of 13 runs]; the viability, T/C (compound 1 µM) is 99.9% [middle of 13 runs]; the viability, T/C (compound 3.16 µM) was 99.1% [middle of 13 runs]; the viability, T/C (compound 10 µM) is 95.5% [middle of 11 runs]. The IC50 by setting is: under setting [1], above 10 µM; (compound alone, run of 01/19/2024) above 10 µM.

With `Cn1ncnc1[C@H]1c2n[nH]c(=O)c3cc(F)cc(c23)N[C@@H]1c1ccc(F)cc1`, the viability, T/C is, setting by setting: (compound 0.000316 µM) 99.5% and 108% and 99.7%; (compound 0.001 µM) 102% and 92.8% and 98%; (compound 0.00316 µM) 91.2% and 96.3% and 103%; (compound 0.01 µM) 107% and 97.5% and 102%; (compound 0.0316 µM) 108% and 102% and 94.4%; (compound 0.1 µM) 101% and 97.9% and 88.9%. Also, the IC50 (curve of compound) was above 0.1 µM.

Turning to `Nc1ccn(C2OC(CO)C(O)C2(F)F)c(=O)n1` (stereo not given), the viability, T/C runs as follows: (compound 0.0316 µM) 64.3% and 74.6% and 56.8%; (compound 0.1 µM) 55.4% and 57.4% and 46.8%; (compound 0.316 µM) 50.4% and 59.5% and 57.8%; (compound 1 µM) 58.3% and 53% and 55.6%; (compound 3.16 µM) 55.6% and 60% and 51.4%; (compound 10 µM) 49.7% and 56.7% and 41.6%. Further, the IC50 (curve of compound) is > 10 µM and 1.86 µM.

For the molecule `O=C(c1cc(Cc2n[nH]c(=O)c3ccccc23)ccc1F)N1CCN(C(=O)C2CC2)CC1`, the viability, T/C reads like this: (compound 0.0316 µM) 99.8% and 99.5% and 107%; (compound 0.1 µM) 96.2% and 91.1% and 106%; (compound 0.316 µM) 91.9% and 115% and 107%; (compound 1 µM) 104% and 97.4% (2×); (compound 3.16 µM) 98.6% and 112% and 104%; (compound 10 µM) 91.7% and 95.1% and 102%. In addition, under “curve of compound”, the IC50 was above 10 µM.

Take `O=c1[nH]cc(F)c(=O)[nH]1`: the viability, T/C is 90.7% and 101% and 99.7% (compound 0.0316 µM); 98.1% and 101% and 92.8% (compound 0.1 µM); 93.2% and 92.1% and 94.4% (compound 0.316 µM); 99.2% and 101% and 92% (compound 1 µM); 107% and 102% and 96.4% (compound 3.16 µM); 99.7% and 106% and 94.3% (compound 10 µM). In addition, the 50% inhibitory concentration (IC50) (curve of compound) was above 10 µM.

The values are drawn from PubChem BioAssay AID1963834 (Molecular Pharmacology Branch, DTP, NCI, 2024).
